Test [1] addresses T1, menin and MLL (menin, Flag tagged; biotinylated MLL1 peptide 1-46aa) (Homo sapiens, UniProt O00255).
T1 sequence (O00255 1-610): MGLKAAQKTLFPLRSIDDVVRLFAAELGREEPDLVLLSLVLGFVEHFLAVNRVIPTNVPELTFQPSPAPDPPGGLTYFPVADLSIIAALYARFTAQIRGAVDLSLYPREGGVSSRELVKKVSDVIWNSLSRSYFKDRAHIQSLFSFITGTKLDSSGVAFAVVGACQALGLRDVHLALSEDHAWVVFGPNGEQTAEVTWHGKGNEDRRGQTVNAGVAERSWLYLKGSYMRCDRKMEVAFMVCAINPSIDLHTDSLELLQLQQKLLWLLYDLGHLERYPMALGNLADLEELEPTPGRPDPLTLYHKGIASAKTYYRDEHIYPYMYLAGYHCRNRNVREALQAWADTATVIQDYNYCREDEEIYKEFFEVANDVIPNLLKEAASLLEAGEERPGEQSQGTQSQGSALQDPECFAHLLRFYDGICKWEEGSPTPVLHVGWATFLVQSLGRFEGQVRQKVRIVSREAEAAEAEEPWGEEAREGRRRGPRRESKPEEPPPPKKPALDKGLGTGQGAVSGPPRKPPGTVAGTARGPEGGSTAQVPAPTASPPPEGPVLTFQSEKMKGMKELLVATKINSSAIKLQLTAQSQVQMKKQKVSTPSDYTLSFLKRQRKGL
Kind of test: biochemical. The conditions noted are these: IC50, binding inhibitory activity between menin and MLL, AlphaLISA; 1 nM menin, 10 nM biotinylated MLL1 peptide.
Description: Then, the fluorescence signal by AlphaLISA (registered trademark, PerkinElmer Co., Ltd.) was measured using a plate reader (PerkinElmer Co., Ltd., EnVisionXcite).

In test [2] the test system is K562 cells. The settings on record: read-out: GI50, cell growth inhibitory activity, K562, day 7, cultured 7 days, assigned by order and values.
Description: (§2) RPMI1640 medium supplemented with 10% FBS was used as a culture medium for each cells (MV-4-11, MOLM-13 cells, human AML cells, K562 cells, human CML cells). […] The prepared drug-containing plate was stored at −30° C. until use, and thawed before use.
(§3) The suspension of each cells was prepared with 10% FBS RPMI1640 culture medium so as to be 1000 cells/mL (K562) or 10000 cells/mL (MV-4-11, MOLM-13), and seeded on the drug-containing plate (40 μL/well) (day 0). The cells were cultured for additional 3 or 7 days. ATP measurement reagent (CellTiter-Glo (registered trademark, Promega Corporation) 2.0 Assay, model number G9242, Promega Corporation) was added to each well at 10 μL/well, on the day of the drug addition (day 0) and 3 days (day 3) or 7 days (day 7) after the drug addition. After affixing a black sticker on the bottom surface, the mixture was stirred using a microplate mixing deaeration machine (model name, Weltornado FK-62, Sakaki Dengyo Co., Ltd.) (stirring conditions, revolution 9, rotation 7, time 12).
(§4) The cell growth of the drug-added group from day 0 to day 3 or day 7 was calculated as T/C %, when the cell growth of the drug-free group was considered as 100%.
The subject of test [3] is MOLM-13 cells. Kind of test: Cell growth inhibitory activity, MOLM-13 cells (Experimental Example 7, 96-well). It is filed as cell-based. The settings on record: Homo sapiens, 168 h, day 7, Sigmoid Emax model. As to the method: (§1) A solution of each concentration (MV-4-11 and MOLM-13: common ratio of 3, 9 concentrations from the final concentration of 1 μM, K562: common ratio of 3, 9 concentrations from the final concentration of 10 μM) of a drug (the compound of Example 131) or a growth medium containing 0.2% DMSO was added to each well at 50 μL/well, and the cells were cultured for additional 7 days.

The test system of test [4] is MV-4-11 cells. Kind of test: Cell growth inhibitory activity, MV-4-11 cells (Experimental Example 7, 96-well). In kind it is cell-based. The settings on record: Homo sapiens, MV4-11, 168 h, day 7, Sigmoid Emax model. How it is done:
as §1

Test [5] concerns K562 cells. Kind of test: Cell growth inhibitory activity, K562 cells (Experimental Example 7, 96-well). It is filed as cell-based. The settings on record: Homo sapiens, 168 h, day 7, linear regression. How it is done:
as §1

For test [6], the system named is MV-4-11 cells. Kind of test: Antitumor activity in MV-4-11 cell subcutaneous transplant model (Experimental Example 3-2). In kind it is in vivo, mice. The settings on record: Exp. Ex. 3-2, oral, 34 days after transplantation. As to the method: MV-4-11 cells were purchased from ATCC. The female FOX CHASE SCID C.B.17/Icr-scid/scidJcl mice were purchased from Claire Japan. […] The compound was administered as a suspension in 0.5% MC. For the compound-free group, 0.5% MC was administered as a solvent. The estimated individual tumor volume was measured from the day of the grouping to 34 days after the transplantation (test end date).
Tumor growth inhibitory rate %=(1−TVCt/TVCc)×100 TVC=(Individual tumor volume on the test end date)−(Individual tumor volume on the grouping date) TVCt: TVC mean value of the compound administration group TVCc: TVC mean value of the compound-free group

Test [7] concerns MLL-AF9-overexpressing AML-like cells (MA9 cells). Description: Differentiation-inducing activity in MLL-AF9-overexpressing AML-like cells (flow cytometry of Gr-1 and cKit). In kind it is cell-based, mouse. The settings on record: 7 days, 5 or 20 nM (Ex. 25, 27), 150 or 300 nM (Ex. 26), 50 or 100 nM (Ex. 22). As to the method: The human MLL-AF9 fusion gene was introduced into cKit-positive mononuclear cells isolated from the myeloid of C57BL6 mouse, by retrovirus infection. MLL-AF9-overexpressing AML-like cells (MA9 cells) that acquired abnormal growth ability were established by liquid-culturing the cells after virus infection for a long period of time. Serum-free medium (GlutaMax, P/S, Stem Pro-34 medium containing 10 ng/ml mIL-3, ng/mL mSCF and 10 ng/mL human Oncostatin M) was used as a culture medium.
For the control group, DMSO was added thereto at a final concentration of 0.1% (2 μL/well) (day 0). After culturing for 7 days (day 7), the cells were collected, and blocked with 5% FBS/PBS containing 10% Mouse BD Fc Block (BD) for 10 minutes at room temperature, and then any of various antibodies (Gr-1-FITC or CD117 (cKit)-APC: Biolegend) was added thereto at a final concentration of 0.4 μg/sample, and the mixture was reacted on ice for 30 minutes. Then, dead cell staining dye DAPI (0.2 mg/mL) was added thereto at so as to be […], and the reaction was carried out on ice for additional 2 minutes under shading. Then, the expression level of each surface antigen of the cells was measured by NovoCyte flow cytometer (LMS). The obtained data were analyzed by FlowJo software (Becton Dickinson), and the rate of each surface antigen-expressing cells in the living cells excluding dead cells was graphed.
A general note: Flow cytometry measures light scatter and fluorescence of single cells or particles in a stream.

The test system of test [8] is OCI-AML3 cells. Kind of test: cells. The conditions noted are these: Homo sapiens, OCI-AML-3, 168 h, read-out: GI50 (nM) Day 7.
Description: The cells were purchased from Deutsche Sammlung von Mikroorganismen und Zellkulturen GmbH (DSMZ). […] The prepared drug-containing plate was stored at −30° C. until use, and thawed before use.
The suspension of the cells was prepared with 10% FBS RPMI1640 culture medium so as to be 50000 cells/mL, and seeded on the drug-containing plate (40 μL/well) (day 0). The cells were cultured for additional 7 days. ATP measurement reagent (CellTiter-Glo (registered trademark, Promega Corporation) 2.0 Assay, model number G9242, Promega Corporation) was added to each well at 10 μL/well, on the day of the drug addition (day 0) and 7 days (day 7) after the drug addition. After affixing a black sticker on the bottom surface, the mixture was stirred using a microplate mixing deaeration machine (model name, Weltornado FK-62, Sakaki Dengyo Co., Ltd.) (stirring conditions, revolution 9, rotation 7, time 12).
The cell growth of the drug-added group from day 0 to day 7 was calculated as T/C %, when the cell growth of the drug-free group was considered as 100%. GI5o was calculated by GROWTH function (exponential regression) using two concentrations sandwiching the concentration (T/C %=50%) that suppresses cell growth by 50%, and T/C %.
Test [9] relates to K562 cells. Kind of test: cells. The conditions noted are these: Homo sapiens, K562, 168 h, read-out: GI50, cell growth inhibitory activity, K562, day 7.
Description: as §2, §3, §4
The test system of test [10] is MV-4-11 cells. Kind of test: cells. The settings on record: Homo sapiens, MV4-11, 168 h, read-out: GI50, cell growth inhibitory activity, MV-4-11, day 7.
Description: as §2, §3, §4
The subject of test [11] is MV-4-11 cells. The settings on record: read-out: GI50, cell growth inhibitory activity, MV-4-11, day 7, cultured 7 days, assigned by order and values, Hydrochloride.
Description: as §2, §3, §4

pIC50: −log10 of the molar value. Where a name gives a salt, the structure may show the parent alone. Read-outs that look alike come from different tables or passages of the source.

A word on the pIC50: it is −log10 of the IC50, conventionally taken in molar units. Higher therefore signals a small IC50. By GI50 is commonly meant the concentration giving 50% growth inhibition. For the compound `COc1nc(N(C)C2CC(NCC3CCC(c4cc(OC)c(OC)nn4)CC3)CC2O)c2cc(CC(F)(F)F)sc2n1` (single isomer, unassigned) [Example 128B, Hydrochloride], the pIC50 in test [1] is 8.18. For the same compound, in [2], the concentration for 50% growth inhibition (GI50) is greater than 5 µM.
`COc1cc(-c2ccc(CN[C@H]3C[C@@H](O)[C@@H](N(C)c4ncnc5sc(CC(F)(F)F)cc45)C3)cc2)nnc1OC` [Example 131, (1R,2S,4R)-4-({[4-(5,6-dimethoxypyridazin-3-yl)phenyl]methyl}amino)-2-{methyl[6-(2,2,2-trifluoroethyl)thieno[2,3-d]pyrimidin-4-yl]amino}cyclopentan-1-ol Succinate]: the 50% growth inhibitory concentration (GI50) in test [3] turned out to be 10.1 nM; in test [4] it was 1.97 nM; in [5] it was 9.11 µM.
For the compound `COc1cc(-c2ccc(CN[C@H]3C[C@@H](O)[C@@H](N(C)c4ncnc5sc(CC(F)(F)F)cc45)C3)cc2)nnc1OC` [Example 25, (1R,2S,4R)-4-({[4-(5,6-dimethoxypyridazin-3-yl)phenyl]methyl}amino)-2-{methyl[6-(2,2,2-trifluoroethyl)thieno[2,3-d]pyrimidin-4-yl]amino}cyclopentan-1-ol Hydrochloride], the “Estimated tumor volume (test end date) Mean ± S.E.” value in test [6] (qdx18, 25 mg/kg/day) is 250 ± 38; in test [6] (qdx18, 50 mg/kg/day), 0 ± 0; in test [6] (qdx18, 100 mg/kg/day), 0 ± 0. For the same compound, the “rate of the myeloid cell differentiation antigen Gr-1-expressing cells in living cells” value in test [7] (versus control group (FIG. 10)) is “increased the rate of Gr-1-positive cells”. Moreover, the “rate of the cKit-expressing cells in living cells” value in [7] (versus control group (FIG. 11)) is “reduced the rate of cKit-positive cells”.
As for `COc1nc(N(C)[C@H]2C[C@@H](NCc3ccc(-c4cc(OC)c(OC(F)F)nn4)cc3)C[C@H]2O)c2cc(CC(F)(F)F)sc2n1` [Example 119, (1R,2S,4R)-4-[({4-[6-(difluoromethoxy)-5-methoxypyridazin-3-yl]phenyl}methy)amino]-2-{[2-methoxy-6-(2,2,2-trifluoroethyl)thieno[2,3-d]pyrimidin-4-yl](methyl)amino}cyclopentan-1-ol hydrochloride], the GI50 in test [8] stood at 33 nM; in [9] it was 859 nM; in test [10], 15.7 nM. The same compound gave a pIC50 in test [1] of 9.15.
In test [1], `COc1nc(N(C)C2CC(NCC3CCC(c4cc(OC)c(OC)nn4)CC3)CC2O)c2cc(CC(F)(F)F)sc2n1` (single isomer, unassigned) [Example 128A, Hydrochloride] gave a pIC50 of 7.74. Also, the values for the GI50 in [9] and in [11] were greater than 5000 nM and 728 nM, respectively.

The values are drawn from patent US11236106B2, “Cycloalkane-1,3-diamine derivative” (Daiichi Sankyo Company, Limited, priority 2018, dated 2022).
